# Data taken from patent US20150119244A1, “AGRICULTURAL USES OF HYTd” (Agrinos AS, priority 2011, published 2015).
# Tested on: potatoes
# Assay: Potato trial in soil infested with fungi, test vs Metam-Sodium (Example 4)
# Source text: Three hundred liters of Metam Sodium was applied per hectare.
smiles,measurement,setting,value
CNC(=S)S [Metam-Sodium],Kilos,potatoes of size 1st,0.32 Kilos
same,Pieces,potatoes of size 1st,1
same,Kilos,potatoes of size 4ta,3.63 Kilos
same,Pieces,potatoes of size 4ta,88
same,Kilos,potatoes of size 2d,6.46 Kilos
same,Pieces,potatoes of size 2d,35
same,Kilos,potatoes of size 3d,2.67 Kilos
same,Pieces,potatoes of size 3d,24
same,Kilos,potatoes of size GIANT,0.43 Kilos
same,Pieces,potatoes of size GIANT,1
same,Kilos,potatoes of size MONO,1.47 Kilos
same,Pieces,potatoes of size MONO,6
same,Kilos,"potatoes, TOTAL of all sizes",15.0 Kilos
same,Pieces,"potatoes, TOTAL of all sizes",155
